According to BigSolDB 2.1:

Nc1ncnc2c1ncn2[C@@H]1O[C@H](CO)[C@@H](O)[C@H]1O
solubility (mole fraction)
Conditions | 278.15 K | 283.15 K | 288.15 K | 293.15 K | 298.15 K | 303.15 K | 308.15 K | 313.15 K | 318.15 K | 323.15 K
in DMF | 0.00414 | 0.00502 | 0.00594 | 0.00687 | 0.00784 | 0.00906 | 0.00993 | 0.0108 | 0.012 | 0.0127
in DMSO | – | – | – | 0.00262 | 0.00299 | 0.00348 | 0.00394 | 0.00442 | 0.00488 | 0.00537
in NMP | 0.0321 | 0.035 | 0.0376 | 0.0407 | 0.0437 | 0.0467 | 0.0496 | 0.0522 | 0.0554 | 0.0582
in propylene glycol | 0.00352 | 0.00375 | 0.004 | 0.00431 | 0.00464 | 0.00497 | 0.00537 | 0.0058 | 0.00623 | 0.00665
in water | 0.00019 | 0.000237 | 0.00029 | 0.000353 | 0.000426 | 0.000516 | 0.000611 | 0.000731 | 0.000876 | 0.00105
